Results reported in publication PMC7515950, “Physiologically based pharmacokinetic modeling to assess metabolic drug–drug interaction risks and inform the drug label for fedratinib” (Cancer Chemotherapy and Pharmacology, 2020).
Where “and” joins values, the source holds several entries; their conditions need not be identical. Equal values may be shown once.

Legend:
[1] = test system: CYP3A4; experiment: CYP3A induction in primary human hepatocytes (IHH0014); type: in vitro ADME
Source text: The induction effect of fedratinib on CYP3A gene expression was identified using human hepatocytes in primary culture. The reported kinetic data, i.e., concentration-dependent fold induction of CYP3A mRNA levels, were fitted to estimate the Indmax and IndC50 values for fedratinib with calibration against the induction effect observed for the positive control compound rifampin [9].

[2] = biological target: T1, OATP1B1 (Homo sapiens, UniProt Q9Y6L6); experiment: OATP1B1 inhibition, HEK-hOATP1B1 cells (TRE0075); type: in vitro ADME; parameters: expressed in transfected cells; host or cells: HEK^TR-hOATP1B1
T1 sequence (Q9Y6L6 1-691): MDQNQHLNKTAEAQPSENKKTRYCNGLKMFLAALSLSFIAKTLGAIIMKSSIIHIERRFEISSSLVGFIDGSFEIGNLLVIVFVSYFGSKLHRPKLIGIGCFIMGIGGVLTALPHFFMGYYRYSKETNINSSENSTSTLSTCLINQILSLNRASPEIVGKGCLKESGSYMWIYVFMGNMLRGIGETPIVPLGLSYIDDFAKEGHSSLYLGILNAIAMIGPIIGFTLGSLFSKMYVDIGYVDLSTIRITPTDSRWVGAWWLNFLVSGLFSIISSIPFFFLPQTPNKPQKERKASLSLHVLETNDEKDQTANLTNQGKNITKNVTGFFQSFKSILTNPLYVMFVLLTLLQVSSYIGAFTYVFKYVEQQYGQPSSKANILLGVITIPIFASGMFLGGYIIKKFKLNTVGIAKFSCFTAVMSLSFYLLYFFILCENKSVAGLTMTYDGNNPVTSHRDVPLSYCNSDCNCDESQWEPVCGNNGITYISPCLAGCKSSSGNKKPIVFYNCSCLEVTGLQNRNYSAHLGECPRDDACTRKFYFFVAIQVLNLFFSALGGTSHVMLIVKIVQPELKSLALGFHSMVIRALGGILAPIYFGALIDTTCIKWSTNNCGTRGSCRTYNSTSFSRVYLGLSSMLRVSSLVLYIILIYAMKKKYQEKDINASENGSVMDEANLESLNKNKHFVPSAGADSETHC
Source text: The reported IC50 values were converted to Ki values using the Cheng-Prusoff equation [10]:
The transporter inhibition parameters (Ki) for fedratinib were derived from the experimentally determined IC50 values using the Cheng-Prusoff equation, i.e., Ki = IC50/(1+[S]/Km) with the substrate concentrations ([S]) reported in the experimental studies and the substrate Km values collected from literature, as summarized in Table 13.

[3] = PBPK parameter estimation in Simcyp (retrograde modeling, QGut, Peff, F, Fg, CLAdd); parameters: species or system human; settings: for CLint,CYP2C19 / CLint,CYP2D6 / CLint,CYP3A4: retrograde modeling, healthy subjects
Source text: Using the retrograde modeling tool provided within Simcyp®, the intrinsic enzyme clearance (CLint) values were optimized by minimizing the differences between the model-predicted and clinically observed dose-normalized AUCinf (see Supplemental Material SM2—Metabolism Parameters), with the fractions of metabolism of CYP3A4 (fmCYP3A4) and additional hepatic enzymes (fmHLM,add) refined by the parameter sensitivity analysis on accumulation ratio for repeated-dose clinical studies (see Supplemental Material SM8). The renal clearance (CLR) and additional systemic clearance (CLadd) were provided as input parameters estimated from the clinical data (see Supplemental Material SM2—Excretion Parameters). The PBPK distribution parameters (including Vss, Vsac, and Q) were directly derived from the compartmental modeling of plasma PK data obtained from healthy subjects administered 500 mg fedratinib single doses, and then provided as input parameters without further modifications (see Supplemental Material SM2—Distribution Parameters).
By default, the QGut is set to be the mean value (i.e., 6.5 L/h) in the PBPK model of fedratinib.
As CYP3A4 is the dominant form of CYP3A in the liver, all metabolic contribution from CYP3A was assigned to CYP3A4 in this PBPK model. The default “Healthy Volunteers” population was used for the retrograde modeling. […] The Fg value required for retrograde modeling was initially set as default 1 and then adjusted to ~0.8 based on model prediction. […] The clearance values derived above for fedratinib in healthy subjects were assumed to be the same for cancer patients including myelofibrosis (MF) patients and patients with refractory solid tumors.
The biliary excretion of unchanged drug accounts for 2.3% of the total intravenous dose in bile-duct cannulated (BDC) rats.

CYP3A4 Ind max ([1]; Simcyp input): 78.000 | EC50 ([1]; human, human hepatocytes in primary culture, CYP3A mRNA, fitted, calibrated against rifampin, read-out: CYP3A4 IndC50): 5.3 µM | CYP3A Indmax ([1]; maximal fold induction over vehicle, CYP3A mRNA, calibrated against rifampin): 78.0 | Ki ([2]; from IC50 by Cheng-Prusoff, probe estradiol-17β-glucuronide): 14.6 µM | IC50 ([2]; probe estradiol-17β-glucuronide 1 μM): 16.4 µM | clearance ([3]; human, oral, read-out: CLAdd (additional systemic clearance) (converted)): ~11.2 mL/min | biliary excretion percentage assumed in humans ([3]; oral dose, assumed from rat data): ~ 2% | CLint,CYP2C19 [3]: 1.25 mL/min/pmol of isoform | CLint,CYP2D6 [3]: 0.258 mL/min/pmol of isoform | CLint,CYP3A4 [3]: 0.610 mL/min/pmol of isoform | CLint,CYP2D6 ([3]; listed as fedratinib): 0.258 μL/min/pmol of isoform | CLint,CYP3A4 ([3]; listed as fedratinib): 0.610 μL/min/pmol of isoform | CLpo used for retrograde calculation ([3]; updated so that predicted dose-normalized AUC agrees with observation): 48 L/h
SMILES: Cc1cnc(Nc2ccc(OCCN3CCCC3)cc2)nc1Nc1cccc(S(=O)(=O)NC(C)(C)C)c1 [Fedratinib]
CLint,CYP2C19 ([3]; listed as fedratinib): 1.25 μL/min/pmol of isoform and 1.253 μL/min/pmol of isoform
